From patent US9125413B1, “Nematicide composition comprising CED-4 peptide” (California State University Fresno, priority 2014, dated 2015)

Assays:
Assay type in all cases: in vivo, Caenorhabditis elegans
[1] = tested on: C. elegans nematodes at the L1 stage; test: Nematicide efficacy of CED-4 peptides, 96-well incubation of C. elegans L1, viability by probe touch; details: for Percentage % Alive / # of nematodes Alive in all combined successful experiments / # of nematodes Dead in all combined successful experiments / Percentage % Dead (mortality rate): three days, about 37° C.
Description: (§1) Assays were performed using 96-well plates. C. elegans nematodes at the L1 stage (refer to FIG. 1) were incubated in each of the 96 wells for three days at about 37° C. at about 0.8 mg/ml peptide concentration for each tested CED-4 peptide. Each of the selected CED-4 peptides were diluted in distilled water to 0.8 mg/ml peptide concentration. Nematodes—numbering between two nematodes and four nematodes—averaging about three nematodes were incubated in 100 μl of CED-4 peptide solution at about 0.8 mg/ml concentration in each well. After a three-day incubation period, the exposed C. elegans nematodes were checked for viability under a dissecting microscope.
The percentage of dead C. elegans from all of the successful experiments is also referred to as the “mortality rate.”
(§2) Each separate well containing nematodes was considered an independent trial experiment. A well in which all of the incubated nematodes were either clearly alive or clearly dead at the end of the incubation period was recorded as one successful experiment. A well in which some or all of the incubated nematodes could not clearly be determined as alive or dead at the end of the incubation period was recorded as one unsuccessful experiment. At a concentration of about 0.8 mg/ml, nine trial experiments were carried out for each of the twelve designed CED-4 peptides.
as §1, with “0.4” for “0.8”
as §2, with “0.4” for “0.8”, “eight” for “nine”

[2] = tested on: C. elegans ced-4 (n1162) mutant nematodes; test: Fecundity of ced-4 mutant C. elegans fed E. coli producing CED-4
Description: (§3) Constructed expression cassettes generate CED-4 protein in bacteria. […] In this experiment, the ced-4 gene was sub-cloned into the pBAD-DEST49 vector. The pBAD-DEST49-ced-4 construct, and the pBAD-DEST49 empty vector were tested for synthesis of the protein CED-4. The E. coli bacteria strain (TOP 10 chem.) was grown, and once the optical density OD600 reached 0.5, the bacteria was induced by adding L-Arabinose 20% and incubated for four hours at 37° C., 226 rpm in rotary shaker (C24, incubator shaker, Edison, N.J. USA). The production of CED-4 protein was analyzed by SDS 10% acrylamide gel and commassie blue staining.
(§4) The genes ced-4 and ced-3 are required for PCD in somatic cells of C. elegans, and a loss-of-function (lf) mutation in any one of them results in increased survival rates of cells that would otherwise be eliminated by PCD. […]
(§5) The effects of CED-4 ingestion on all three different strains of C. elegans used were quantified by population size throughout several generations. After the hatched nematodes fed on either the control bacteria or the CED-4 producing bacteria for 72 hours, the nematodes in each experiment were scored for fecundity over the course of 120 hrs. Fecundity was measured by counting the number of hatched offspring. There were ten experiments replicated for each of the three analyzed C. elegans strains.

[3] = tested on: C. elegans wild-type (N2 strain) nematodes; test: Fecundity of C. elegans wild-type nematodes fed E. coli producing CED-4
Description: as §3
The genes ced-4 and ced-3 are required for PCD in somatic cells of C. elegans, and a loss-of-function (lf) mutation in any one of them results in increased survival rates of cells that would otherwise be eliminated by PCD. In the experiment summarized by FIG. 5, bacteria carrying the ced-4 gene construct and bacteria carrying an empty vector were grown as described above in Section E, and used to feed C. elegans wild-type nematodes, mutant C. elegans ced-3 nematodes, and mutant C. elegans ced-4 nematodes at L1/L2 stages (refer to FIG. 1). For the experiment described in FIG. 5, C. elegans wild-type (wt), ced-3 (n717) and ced-4 (n1162) strains were synchronized, and the hatched nematodes were raised on a diet consisting of E. coli bacteria producing CED-4. Both nematodes and bacteria were sustained on NGM media and incubated at a temperature between 25° C. and 28° C.
as §5

[4] = tested on: C. elegans ced-3 (n717) mutant nematodes; test: Fecundity of ced-3 mutant C. elegans fed E. coli producing CED-4
Description: as §3, §4, §5

[5] = peptide concentration of 0.4 mg/ml
[6] = peptide concentration of 0.8 mg/ml
[7] = versus non-CED-4 producing bacteria

Molecule: H-FPKFMQLHQKFY-OH [Peptide 12]
- Percentage % Alive ([1]; 0.4 mg/ml): 33.3%
- # of nematodes Alive in all combined successful experiments ([1]; 0.8 mg/ml): 0
- Percentage % Alive ([1]; 0.8 mg/ml): 0%

Molecule: H-LVGVECITPYSYKSLAMALQR-OH [Peptide 9]
- # of nematodes Alive in all combined successful experiments ([1]; 0.4 mg/ml): 18
- # of nematodes Dead in all combined successful experiments ([1]; 0.4 mg/ml): 0
- Percentage % Alive ([1]; 0.4 mg/ml): 100%
- Percentage % Dead (mortality rate) ([1]; 0.4 mg/ml): 0%
- # of nematodes Alive in all combined successful experiments ([1]; 0.8 mg/ml): 8
- # of nematodes Dead in all combined successful experiments ([1]; 0.8 mg/ml): 0
- Percentage % Alive ([1]; 0.8 mg/ml): 100%
- Percentage % Dead (mortality rate) ([1]; 0.8 mg/ml): 0%
- nematicide efficacy [1, 5]: not associated with a high number of dead nematodes
- nematicide efficacy [1, 6]: not associated with a high number of dead nematodes

Molecule: H-TSVVLKRMICNALI-OH [Peptide 6]
- # of nematodes Alive in all combined successful experiments ([1]; 0.4 mg/ml): 9
- # of nematodes Dead in all combined successful experiments ([1]; 0.4 mg/ml): 0
- Percentage % Alive ([1]; 0.4 mg/ml): 100%
- Percentage % Dead (mortality rate) ([1]; 0.4 mg/ml): 0%
- # of nematodes Alive in all combined successful experiments ([1]; 0.8 mg/ml): 9
- # of nematodes Dead in all combined successful experiments ([1]; 0.8 mg/ml): 0
- Percentage % Alive ([1]; 0.8 mg/ml): 100%
- Percentage % Dead (mortality rate) ([1]; 0.8 mg/ml): 0%
- nematicide efficacy [1, 5]: not associated with a high number of dead nematodes
- nematicide efficacy [1, 6]: not associated with a high number of dead nematodes

Molecule: bovine serum albumin [BSA, reference compound]
- # of nematodes Alive in all combined successful experiments ([1]; 0.4 mg/ml): 21
- # of nematodes Dead in all combined successful experiments ([1]; 0.4 mg/ml): 0
- Percentage % Alive ([1]; 0.4 mg/ml): 100%
- # of nematodes Alive in all combined successful experiments ([1]; 0.8 mg/ml): 26
- # of nematodes Dead in all combined successful experiments ([1]; 0.8 mg/ml): 0
- Percentage % Alive ([1]; 0.8 mg/ml): 100%

Molecule: NH3—ILLMLKSEDDLLNF-COOH (H-ILLMLKSEDDLLNF-OH) [Peptide 5, ID No. 1]
- nematicide efficacy [1, 5]: not associated with a high number of dead nematodes
- nematicide efficacy [1, 6]: not associated with a high number of dead nematodes

Molecule: H-QSHLADFLEDYIDFAINE-OH [Peptide 1]
- # of nematodes Alive in all combined successful experiments ([1]; 0.4 mg/ml): 14
- # of nematodes Dead in all combined successful experiments ([1]; 0.4 mg/ml): 0
- Percentage % Alive ([1]; 0.4 mg/ml): 100%
- Percentage % Dead (mortality rate) ([1]; 0.4 mg/ml): 0%
- nematicide efficacy [1, 5]: not associated with a high number of dead nematodes
- nematicide efficacy [1, 6]: not associated with a high number of dead nematodes

Molecule: H-RQMLDRKLLLGNVPKQMTC-OH [Peptide 3]
- Percentage % Alive ([1]; 0.4 mg/ml): 40%
- Percentage % Dead (mortality rate) ([1]; 0.4 mg/ml): 60%
- # of nematodes Dead in all combined successful experiments ([1]; 0.8 mg/ml): 20
- Percentage % Alive ([1]; 0.8 mg/ml): 0%
- Percentage % Dead (mortality rate) ([1]; 0.8 mg/ml): 100%

Molecule: H-MMFFKSCEPKTFEKMAQLNNKLESR-OH [Peptide 8]
- # of nematodes Alive in all combined successful experiments ([1]; 0.4 mg/ml): 10
- Percentage % Alive ([1]; 0.4 mg/ml): 90.90%
- Percentage % Dead (mortality rate) ([1]; 0.4 mg/ml): 9.09%
- # of nematodes Alive in all combined successful experiments ([1]; 0.8 mg/ml): 2
- # of nematodes Dead in all combined successful experiments ([1]; 0.8 mg/ml): 0
- Percentage % Alive ([1]; 0.8 mg/ml): 100%
- Percentage % Dead (mortality rate) ([1]; 0.8 mg/ml): 0%
- nematicide efficacy [1, 6]: not associated with a high number of dead nematodes

Molecule: H-DLLRPVVIAPQFSRQ-OH [Peptide 2]
- Percentage % Alive ([1]; 0.4 mg/ml): 92.3%
- Percentage % Dead (mortality rate) ([1]; 0.4 mg/ml): 7.7%
- Percentage % Alive ([1]; 0.8 mg/ml): 0%
- Percentage % Dead (mortality rate) ([1]; 0.8 mg/ml): 100%

Molecule: H-TCYIREYHVDRVI-OH [Peptide 4]
- Percentage % Alive ([1]; 0.4 mg/ml): 64.28%
- Percentage % Alive ([1]; 0.8 mg/ml): 50%

Molecule: H-ALLSGKRMPVLTFKI-OH [Peptide 10]
- Percentage % Alive ([1]; 0.4 mg/ml): 30%
- Percentage % Dead (mortality rate) ([1]; 0.4 mg/ml): 70%
- Percentage % Alive ([1]; 0.8 mg/ml): 66.7%
- Percentage % Dead (mortality rate) ([1]; 0.8 mg/ml): 33.3%

Molecule: H-VDAQTIANGISILEQRL-OH [Peptide 11]
- # of nematodes Alive in all combined successful experiments ([1]; 0.4 mg/ml): 22
- # of nematodes Dead in all combined successful experiments ([1]; 0.4 mg/ml): 0
- Percentage % Alive ([1]; 0.4 mg/ml): 100%
- Percentage % Dead (mortality rate) ([1]; 0.4 mg/ml): 0%
- Percentage % Alive ([1]; 0.8 mg/ml): 70%
- Percentage % Dead (mortality rate) ([1]; 0.8 mg/ml): 30%
- nematicide efficacy [1, 5]: not associated with a high number of dead nematodes

Molecule: H-DVEISNAASQTCEFIEVTSLE-OH [Peptide 7]
- # of nematodes Alive in all combined successful experiments ([1]; 0.4 mg/ml): 19
- # of nematodes Dead in all combined successful experiments ([1]; 0.4 mg/ml): 0
- Percentage % Alive ([1]; 0.4 mg/ml): 100%
- Percentage % Dead (mortality rate) ([1]; 0.4 mg/ml): 0%
- # of nematodes Alive in all combined successful experiments ([1]; 0.8 mg/ml): 18
- # of nematodes Dead in all combined successful experiments ([1]; 0.8 mg/ml): 0
- Percentage % Alive ([1]; 0.8 mg/ml): 100%
- Percentage % Dead (mortality rate) ([1]; 0.8 mg/ml): 0%
- nematicide efficacy [1, 5]: not associated with a high number of dead nematodes
- nematicide efficacy [1, 6]: not associated with a high number of dead nematodes

B1: CED-4: 549 amino acid C. elegans protein (SEQ. ID 1, GenBank CAA48781.1), about 62 KD, produced recombinantly in E. coli; fed as CED-4 producing bacteria (protein)
chain: MLCEIECRALSTAHTRLIHDFEPRDALTYLEGKNIFTEDHSELISKMSTRLERIANFLRIYRRQASELGPLIDFFNYNNQSHLADFLEDYIDFAINEPDLLRPVVIAPQFSRQMLDRKLLLGNVPKQMTCYIREYHVDRVIKKLDEMCDLDSFFLFLHGRAGSGKSVIASQALSKSDQLIGINYDSIVWLKDSGTAPKSTFDLFTDILLMLKSEDDLLNFPSVEHVTSVVLKRMICNALIDRPNTLFVFDDVVQEETIRWAQELRLRCLVTTRDVEISNAASQTCEFIEVTSLEIDECYDFLEAYGMPMPVGEKEEDVLNKTIELSSGNPATLMMFFKSCEPKTFEKMAQLNNKLESRGLVGVECITPYSYKSLAMALQRCVEVLSDEDRSALAFAVVMPPGVDIPVKLWSCVIPVDICSNEEEQLDDEVADRLKRLSKRGALLSGKRMPVLTFKIDHIIHMFLKHVVDAQTIANGISILEQRLLEIGNNNVSVPERHIPSHFQKFRRSSASEMYPKTTEETVIRPEDFPKFMQLHQKFYDSLKNFACC
- number of hatched offspring (mean) ([2]; 2 ced-4 mutant embryos per experiment, exposed to CED-4 producing bacteria, ten experiments): about 236 hatched offspring
- decrease in ced-4 mutant fecundity due to exogenous CED-4 [2, 7]: statistically insignificant
- number of hatched offspring (mean) ([3]; 2 wild-type embryos per experiment, fed bacteria expressing CED-4 72 hours, fecundity scored over 120 hrs, ten experiments): about 115 hatched offspring
- increase in rate of cell death ([3]; wild-type fed bacteria expressing CED-4 for 6 days): approximately 2 fold
- offspring produced relative to those fed bacteria containing empty expression vectors ([3]; wild-type, CED-4 fed, t-test p≦0.01): less than 50%
- reduction in fecundity ([3]; wild-type, ingesting bacteria expressing CED-4): 50%
- number of hatched offspring (mean) ([4]; 2 ced-3 mutant embryos per experiment, ingesting CED-4 producing bacteria, ten experiments): about 220 hatched offspring
- decrease in ced-3 mutant fecundity due to exogenous CED-4 [4, 7]: statistically insignificant
